Source: patent US20180244895A1, “ANTIMICROBIAL AND ANTIVIRAL COMPOSITE POLYMER SURFACES” (YEDITEPE UNIVERSITESI, priority 2015, published 2018)
Like-named read-outs stand apart in the source and are kept apart here.

Columns and labels:
[1] = tested on: various bacterial strains; details: 0.02% chlorhexidine solution, 10-minute exposure; cited from earlier work
[2] = tested on: Human adenovirus type 5 Adenoid 75 strain; type: cell-based
[3] = tested on: poliovirus type 1 Chat strain; type: cell-based
[4] = tested on: P. aeruginosa NCIMB 10548; details: cited from earlier work
E. coli NCIMB 10000 = details: cited from earlier work
Pityrosporum ovale = details: cited from earlier work
[5] = tested on: Saccharomyces cerevisiae yeast; details: cited from earlier work
Herpesvirus hominis = details: 0.02% chlorhexidine gluconate, 90-minute exposure at room temperature; cited from earlier work
poliovirus = details: 0.02% chlorhexidine gluconate, 90-minute exposure at room temperature; cited from earlier work
adenovirus = details: 0.02% chlorhexidine gluconate, 90-minute exposure at room temperature; cited from earlier work
[6] = tested on: Vancomycin-resistant Enterococcus (VRE); assay: Modified disc diffusion method, boron compounds; type: cell-based; design: key: + sign indicates that the boron compounds had antimicrobial activity.; − sign indicates that there is no antimicrobial activity; details: disc immersed in pulverized compound; 36±1° C., 24 hours
[7] = tested on: Methicillin-resistant Staphylococcus aureus (MRSA); assay: Modified disc diffusion method, boron compounds; type: cell-based; design: key: + sign indicates that the boron compounds had antimicrobial activity.; − sign indicates that there is no antimicrobial activity; details: disc immersed in pulverized compound; 36±1° C., 24 hours
Escherichia coli = assay: Modified disc diffusion method, boron compounds; type: cell-based; design: key: + sign indicates that the boron compounds had antimicrobial activity.; − sign indicates that there is no antimicrobial activity; details: disc immersed in pulverized compound; 36±1° C., 24 hours
Staphylococcus aureus = assay: Modified disc diffusion method, boron compounds; type: cell-based; design: key: + sign indicates that the boron compounds had antimicrobial activity.; − sign indicates that there is no antimicrobial activity; details: disc immersed in pulverized compound; 36±1° C., 24 hours
Pseudomonas aeruginosa = assay: Modified disc diffusion method, boron compounds; type: cell-based; design: key: + sign indicates that the boron compounds had antimicrobial activity.; − sign indicates that there is no antimicrobial activity; details: disc immersed in pulverized compound; 36±1° C., 24 hours
Candida albicans = assay: Modified disc diffusion method, boron compounds; type: cell-based; design: key: + sign indicates that the boron compounds had antimicrobial activity.; − sign indicates that there is no antimicrobial activity; details: disc immersed in pulverized compound; 36±1° C., 48 hours
Candida glabrata = assay: Modified disc diffusion method, boron compounds; type: cell-based; design: key: + sign indicates that the boron compounds had antimicrobial activity.; − sign indicates that there is no antimicrobial activity; details: disc immersed in pulverized compound; 36±1° C., 48 hours
Aspergillus spp. = assay: Modified disc diffusion method, boron compounds; type: cell-based; design: key: + sign indicates that the boron compounds had antimicrobial activity.; − sign indicates that there is no antimicrobial activity; details: disc immersed in pulverized compound; 25±1° C., 72 hours
Fusarium oxysporum = assay: Modified disc diffusion method, boron compounds; type: cell-based; design: key: + sign indicates that the boron compounds had antimicrobial activity.; − sign indicates that there is no antimicrobial activity; details: disc immersed in pulverized compound; 25±1° C., 72 hours
Botrytis cinerea = assay: Modified disc diffusion method, boron compounds; type: cell-based; design: key: + sign indicates that the boron compounds had antimicrobial activity.; − sign indicates that there is no antimicrobial activity; details: disc immersed in pulverized compound; 25±1° C., 72 hours
Penicillium spp. = assay: Modified disc diffusion method, boron compounds; type: cell-based; design: key: + sign indicates that the boron compounds had antimicrobial activity.; − sign indicates that there is no antimicrobial activity; details: disc immersed in pulverized compound; 25±1° C., 72 hours
[8] = tested on: humanrhinovirus, coxsackievirus and mengovirus; details: binds with ions of metals such as zinc; cited from earlier work
[9] = ingestion of 30 mg twice daily for three weeks; cited from earlier work
enteric bacteria = details: cited from earlier work
[10] = 60 minutes, clean medium, 20° C.

Compound	Antimicrobial activity (inhibition zone) [6]	Antimicrobial activity (inhibition zone) [7]	Antimicrobial activity (inhibition zone) (Escherichia coli)	Antimicrobial activity (inhibition zone) (Staphylococcus aureus)	Antimicrobial activity (inhibition zone) (Pseudomonas aeruginosa)	Antimicrobial activity (inhibition zone) (Candida albicans)	Antimicrobial activity (inhibition zone) (Candida glabrata)	Antimicrobial activity (inhibition zone) (Aspergillus spp.)	Antimicrobial activity (inhibition zone) (Fusarium oxysporum)	Antimicrobial activity (inhibition zone) (Botrytis cinerea)	Antimicrobial activity (inhibition zone) (Penicillium spp.)	other results
[H]/N=C(\N/C(=N/[H])NCCCCCCNC(=N)NC(=N)Nc1ccc(Cl)cc1)Nc1ccc(Cl)cc1 [chlorhexidine]	–	–	–	–	–	–	–	–	–	–	–	inhibition of microorganisms [1]: 4 log
Zinc pyrithione	–	–	–	–	–	–	–	–	–	–	–	Reduction ratio in virus titer [2]: 4.0 Logarithmic TCID50 ratio; Virus titer with disinfectant [2]: 1.0 Logarithmic TCID50; active against virus [2]: 99.9%; reduction in virus titer [2]: at least 4 log; Reduction ratio in virus titer [3]: 4.5 Logarithmic TCID50 ratio; Virus titer with disinfectant [3]: 1.5 Logarithmic TCID50; reduction in virus titer [3]: at least 4 log; MIC value [4]: 13 µg/mL; MIC value (E. coli NCIMB 10000): 4.5 µg/mL; antifungal activity (Pityrosporum ovale): has antifungal activity; antiyeast activity [5]: has antiyeast activity
N=C(NCCCCCCNC(=N)NC(=N)Nc1ccc(Cl)cc1)NC(=N)Nc1ccc(Cl)cc1.O=C(O)[C@H](O)[C@@H](O)[C@H](O)[C@H](O)CO.O=C(O)[C@H](O)[C@@H](O)[C@H](O)[C@H](O)CO [Chlorhexidine Gluconate, Chlorhexidine gluconate]	–	–	–	–	–	–	–	–	–	–	–	Reduction ratio in virus titer [2]: 4.0 Logarithmic TCID50 ratio; Virus titer with disinfectant [2]: 1.5 Logarithmic TCID50; reduction in virus titer [2]: at least 4 log; Reduction ratio in virus titer ([2]; 1 minute, clean medium, 20° C.): 4.0 Logarithmic TCID50 ratio; Virus titer with disinfectant ([2]; 1 minute, clean medium, 20° C.): 1.5 Logarithmic TCID50; Reduction ratio in virus titer [2, 10]: 4.0 Logarithmic TCID50 ratio; Virus titer with disinfectant [2, 10]: 1.5 Logarithmic TCID50; active against virus ([2]; used directly without being diluted, 20° C., 1 and 60 minute application periods): 99.9%; Virus titer with disinfectant [3]: 2.0 Logarithmic TCID50; reduction in virus titer [3]: at least 4 log; reduction of virus titration (Herpesvirus hominis): more than 99%; activity against virus (poliovirus): ineffective; activity against virus (adenovirus): ineffective
O.O.O.O.[Na+].[O-]B1OO1 [SPT, Sodium perborate tetrahydrate]	+	+	+	+	+	+	+	+	+	+	+	–
CC(C)c1cccc(=O)c(O)c1 [hinokitiol]	–	–	–	–	–	–	–	–	–	–	–	inhibition of virus proliferation [8]: inhibited proliferation
Zinc borate [ZB]	+	+	+	+	+	+	+	+	+	+	+	–
O.O.O.O.O.[Na+].[Na+].[O-]B1OB2OB([O-])OB(O1)O2 [BP, Borax pentahydrate]	+	+	+	+	+	+	+	+	+	+	+	–
O.O.O.O.O.O.O.O.O.O.[Na+].[Na+].[O-]B1OB2OB([O-])OB(O1)O2 [SB, Sodium Borate]	+	+	+	+	+	+	+	+	+	+	+	–
O.O.O.O.O=BOB1OB(OB=O)OB2OB([O-])OB([O-])OB(O1)O2.[Na+].[Na+] [DOT, Disodium octaborate tetrahydrate]	+	+	+	+	+	+	+	+	+	+	+	–
O=BOB(O)OB(O)OB=O [borax, borax (Na2B4O7 10 H2O)]	–	–	–	–	–	–	–	–	–	–	–	effect on rheumatism [9]: substantially alleviated rheumatism
OB(O)O [boric acid]	–	–	–	–	–	–	–	–	–	–	–	antibacterial activity (enteric bacteria): has antibacterial activity
